# Assay results taken from PMC12920294, “Optimizing uPAR-targeting radiopeptides for improved tissue distribution: progress towards radionuclide therapy” (European Journal of Nuclear Medicine and Molecular Imaging, 2025).
# Key:
# human serum albumin = human serum albumin (Homo sapiens, UniProt P02768); type: in vitro ADME; set-up: tissue Stiftung Blutspende SRK Aargau-Solothurn, Switzerland; host or cells: human blood plasma
# human uPAR = molecular target: T1, human uPAR (Homo sapiens, UniProt Q03405); experiment: uPAR-binding affinity, saturation binding on HEK-uPAR cells; conditions: 4 °C
# T1 construct: host or cells: HEK cells transfected with human uPAR (HEK-uPAR)
# Procedure, shortened: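 Radiopeptides (5 MBq/nmol; 1.01–600 nM final) were incubated 1 h on ice at 4 °C with adherent cells, with or without a 30 min pre-block by 40 µM AE105. Cell lysates were γ-counted, and KD came from nonlinear regression of specific binding without ligand-depletion correction. Values are mean ± SD, n = 3.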
# in vivo = conditions: CD1 nude, mouse, 0.5 nmol/mouse, total radioactivity
# mouse serum albumin = molecular target: T2, mouse serum albumin (Mus musculus, UniProt P07724); type: in vitro ADME
# T2 construct: tissue Rockland Immunochemicals Inc., USA Lot: 32321; host or cells: mouse blood plasma
# [1] = system: HEK-uPAR xenograft-bearing mice; conditions: mouse, in vivo
# T2 sequence (P07724 25-608): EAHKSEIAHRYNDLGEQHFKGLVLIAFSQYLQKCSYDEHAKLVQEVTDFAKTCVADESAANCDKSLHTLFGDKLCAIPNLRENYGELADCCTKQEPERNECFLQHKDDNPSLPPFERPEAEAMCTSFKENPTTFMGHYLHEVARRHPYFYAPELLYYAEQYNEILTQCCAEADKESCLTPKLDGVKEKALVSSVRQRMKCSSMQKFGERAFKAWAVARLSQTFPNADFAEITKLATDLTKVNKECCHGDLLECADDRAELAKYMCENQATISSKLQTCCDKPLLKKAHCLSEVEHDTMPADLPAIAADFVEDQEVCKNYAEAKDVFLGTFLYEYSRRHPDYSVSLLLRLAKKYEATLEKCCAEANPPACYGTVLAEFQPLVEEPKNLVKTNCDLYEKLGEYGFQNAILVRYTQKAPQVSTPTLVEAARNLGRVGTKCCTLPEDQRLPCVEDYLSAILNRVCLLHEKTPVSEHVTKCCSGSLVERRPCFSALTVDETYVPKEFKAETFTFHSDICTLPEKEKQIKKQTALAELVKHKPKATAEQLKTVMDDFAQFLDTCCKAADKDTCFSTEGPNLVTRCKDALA
# Chain of human serum albumin (P02768 25-609): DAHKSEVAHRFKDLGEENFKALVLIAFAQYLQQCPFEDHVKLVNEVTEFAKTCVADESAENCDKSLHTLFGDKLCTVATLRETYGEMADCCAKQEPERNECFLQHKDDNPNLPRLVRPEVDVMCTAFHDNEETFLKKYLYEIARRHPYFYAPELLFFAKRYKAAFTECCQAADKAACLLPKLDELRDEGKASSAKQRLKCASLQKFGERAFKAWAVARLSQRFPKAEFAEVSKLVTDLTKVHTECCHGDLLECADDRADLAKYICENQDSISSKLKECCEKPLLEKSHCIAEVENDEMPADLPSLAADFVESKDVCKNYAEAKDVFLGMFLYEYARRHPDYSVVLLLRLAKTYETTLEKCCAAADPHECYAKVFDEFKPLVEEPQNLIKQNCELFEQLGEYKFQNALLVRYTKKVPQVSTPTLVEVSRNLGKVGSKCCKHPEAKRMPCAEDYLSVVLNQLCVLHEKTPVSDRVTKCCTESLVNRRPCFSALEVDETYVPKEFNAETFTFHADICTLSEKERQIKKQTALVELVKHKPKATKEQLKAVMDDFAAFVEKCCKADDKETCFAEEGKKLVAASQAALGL
# T1 sequence (Q03405 23-335): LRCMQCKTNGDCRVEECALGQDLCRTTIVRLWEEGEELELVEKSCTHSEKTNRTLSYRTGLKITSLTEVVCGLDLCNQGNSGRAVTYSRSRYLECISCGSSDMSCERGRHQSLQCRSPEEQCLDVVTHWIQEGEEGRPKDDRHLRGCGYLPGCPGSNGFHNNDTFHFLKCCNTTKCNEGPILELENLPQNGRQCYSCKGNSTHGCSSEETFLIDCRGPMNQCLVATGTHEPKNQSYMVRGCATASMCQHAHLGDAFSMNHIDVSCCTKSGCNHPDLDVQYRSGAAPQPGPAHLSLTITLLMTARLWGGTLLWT
smiles,measurement,setting,value
"Cc1ccc(CCCC(=O)NCCOCCOCCOCCOCCC(=O)NCCCC[C@H](NC(=O)CC[C@H](C(=O)O)N2CCN(CC(=O)O)CCN(CC(=O)O)CCN(CC(=O)O)CC2)C(=O)N[C@@H](CC(=O)O)C(=O)N[C@@H](CC2CCCCC2)C(=O)N[C@@H](Cc2ccccc2)C(=O)N[C@H](CO)C(=O)N[C@H](CCCNC(=N)N)C(=O)N[C@@H](Cc2ccc(O)cc2)C(=O)N[C@@H](CC(C)C)C(=O)N[C@@H](Cc2c[nH]c3ccccc23)C(=O)N[C@@H](CO)C(N)=O)cc1 [[^177Lu]Lu-uPAR-17, metal not drawn]",Inverse relative albumin-binding affinity,human serum albumin,0.65
same,Kd,human uPAR,31 ± 6 nM
same,tissue uptake at 4 h,in vivo; Blood uptake,6 ± 1.3 %ID/g
same,tissue uptake at 24 h,in vivo; Blood uptake,< 0.03 %ID/g
same,tissue uptake at 4 h,in vivo; Bone uptake,0.82 ± 0.1 %ID/g
same,tissue uptake at 24 h,in vivo; Bone uptake,0.06 ± 0.01 %ID/g
same,tissue uptake at 4 h,in vivo; Brain uptake,0.13 ± 0.04 %ID/g
same,tissue uptake at 24 h,in vivo; Brain uptake,< 0.03 %ID/g
same,tissue uptake at 4 h,in vivo; HEK-uPAR xenograft uptake,8 ± 0.7 %ID/g
same,tissue uptake at 24 h,in vivo; HEK-uPAR xenograft uptake,2.1 ± 0.5 %ID/g
same,tissue uptake at 4 h,in vivo; Heart uptake,2.2 ± 0.4 %ID/g
same,tissue uptake at 24 h,in vivo; Heart uptake,0.07 ± 0.01 %ID/g
same,tissue uptake at 4 h,in vivo; Intestines uptake,0.87 ± 0.18 %ID/g
same,tissue uptake at 24 h,in vivo; Intestines uptake,0.05 ± 0.01 %ID/g
same,tissue uptake at 4 h,in vivo; Kidneys uptake,4.6 ± 0.3 %ID/g
same,tissue uptake at 24 h,in vivo; Kidneys uptake,1.3 to 1.7 %ID/g
same,tissue uptake at 4 h,in vivo; Liver uptake,1.7 ± 0.2 %ID/g
same,tissue uptake at 24 h,in vivo; Liver uptake,0.21 ± 0.03 %ID/g
same,tissue uptake at 4 h,in vivo; Lung uptake,3 ± 0.7 %ID/g
same,tissue uptake at 24 h,in vivo; Lung uptake,0.12 ± 0.02 %ID/g
same,tissue uptake at 4 h,in vivo; Muscle uptake,0.57 ± 0.1 %ID/g
same,tissue uptake at 24 h,in vivo; Muscle uptake,< 0.03 %ID/g
same,tissue uptake at 4 h,in vivo; Pancreas uptake,0.82 ± 0.17 %ID/g
same,tissue uptake at 24 h,in vivo; Pancreas uptake,0.04 ± 0.01 %ID/g
same,tissue uptake at 4 h,in vivo; Salivary glands uptake,1.2 ± 0.3 %ID/g
same,tissue uptake at 24 h,in vivo; Salivary glands uptake,0.12 ± 0.03 %ID/g
same,tissue uptake at 4 h,in vivo; Spleen uptake,1 ± 0.2 %ID/g
same,tissue uptake at 24 h,in vivo; Spleen uptake,0.13 ± 0.02 %ID/g
same,tissue uptake at 4 h,in vivo; Stomach uptake,0.73 ± 0.29 %ID/g
same,tissue uptake at 24 h,in vivo; Stomach uptake,0.05 ± 0.01 %ID/g
same,Albumin-binding affinity relative to [177Lu]Lu-uPAR-11,mouse serum albumin,0.50‒0.77
same,"Albumin-binding properties, relative values (inverse B50 ratio)",mouse serum albumin,0.77
same,Kidneys uptake,"[1]; CD1 nude, 0.5 nmol/mouse, 24 h",1.3 ± 0.2 %IA/g
same,Xgrft-to-liver ratio,[1],10 ± 3
